Data taken from patent US4748122A, “2,5-diketo-D-gluconic acid reductase” (Shionogi & Co., Ltd., priority 1983, dated 1988).

Experiments:
[1] = target: T1, 25DKG-Rase (Corynebacterium sp., UniProt P15339); assay: Spectrophotometric enzymatic activity (decrease in absorption at 340 nm), purified enzyme solution of Example 1; format: biochemical, Corynebacterium sp. No. 20A-77 mutant (FERM-BP 108); conditions: for reductive activity (in words) / Activity of the purified enzyme solution (1 ml): NADPH, 0.1M TB pH 7, 30° C.; for Enzymatic activity: per 1 ml purified enzyme solution
T1 construct: The enzyme is an intracellular enzyme extracted from the cells of the 2KLG producing strain; made in house; host or cells: natural producer Corynebacterium sp; No. 20A-77 mutant FERM-BP 108, enzyme purified from sonicated cells; not recombinant
T1 sequence (P15339 2-277 limits assumed): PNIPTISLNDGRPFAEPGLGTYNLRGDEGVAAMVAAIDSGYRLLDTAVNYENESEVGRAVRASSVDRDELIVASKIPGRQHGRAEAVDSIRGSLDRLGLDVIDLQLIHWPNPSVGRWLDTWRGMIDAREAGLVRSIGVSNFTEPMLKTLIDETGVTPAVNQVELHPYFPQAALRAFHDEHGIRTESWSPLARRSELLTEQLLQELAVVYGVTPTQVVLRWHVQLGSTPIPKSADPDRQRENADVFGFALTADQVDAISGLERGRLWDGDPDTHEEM

[2] = target: T1, 25DKG-Rase; format: biochemical, Corynebacterium sp. No. 20A-77 mutant (FERM-BP 108); conditions: 60 minutes; for product formed (paper and gas chromatography): NADPH, 0.01M TB pH 7, 30° C.
[3] = system: 25DKG-Rase derived from Strain K-106; assay: Enzymatic activity of 25DKG-Rase obtained from K-106 (Example 2); format: biochemical, Corynebacterium sp. No. K-106 (ATCC 31,088)
Procedure: (§1) Two point nine (2.9) ml of 0.1M TB (pH 7) containing 0.3 μmoles of NADPH was placed in a quartz cubette having 1 cm optical length difference and added 1-5 μl of the enzyme solution obtained above (3) thereto. Then, to the mixture, each 0.1 ml of the various substrate solutions (0.1M) were added while being kept at 30° C. Reactivities of the enzyme on the respective substrates were determined, by means of successive measurement of the decrease in absorption at 340 nm, on the basis of the decrease for 1 minute.
(§2) The measurements of the physico-chemical properties were conducted in a manner as described in Example 1-(4) (5).
(§3) Enzymatic activities of 25DKG-Rases obtained from K-106 and T-13 were measured at varying pH from 4 to 9 (substrate: Ca-25DKG, reaction temperature: 30° C.).
(§4) The enzymatic activities of 25DKG-Rases obtained from K-106 and T-13 were measured at varying temperature (pH 7.0, substrate: Ca-25DKG).

[4] = system: 25DKG-Rase derived from Strain T-13; assay: Enzymatic activity of 25DKG-Rase obtained from T-13 (Example 2); format: biochemical, Corynebacterium sp. No. T-13 (ATCC 31,089)
Procedure: as §1, §2, §3, §4

[5] = target: T2, 25DKG-Rase (Corynebacterium sp. SHS752001, UniProt P15339); assay: Action, substrate specificity and Km of the purified 25DKG-Rase (general description); format: biochemical, genus Corynebacterium; conditions: for specificities for substrates (reducing action): in the presence of NADPH
T2 sequence (P15339 whole entry): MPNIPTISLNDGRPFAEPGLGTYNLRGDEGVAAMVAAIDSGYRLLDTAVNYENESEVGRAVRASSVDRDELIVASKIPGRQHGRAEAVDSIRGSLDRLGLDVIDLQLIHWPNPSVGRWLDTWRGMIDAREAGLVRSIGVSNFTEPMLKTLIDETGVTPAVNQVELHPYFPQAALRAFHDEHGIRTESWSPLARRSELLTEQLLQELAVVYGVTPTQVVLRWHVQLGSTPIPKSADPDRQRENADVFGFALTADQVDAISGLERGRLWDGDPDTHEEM
Excerpt: As shown, NADPH is used as a hydrogen donor in the above reaction. Reduced nicotinamide adenine dinucleotide (NADH) may also be used as the hydrogen donor in the above reaction but the reaction velocity in that case is lowered to one two hundred and fiftieth (1/250) or less of that in the reaction where NADPH is used.
The enzymatic activity is spectrophotometrically measured on the basis of the decrease in absorption at 340 nm which corresponds to the oxidation of NADPH as the result of the enzyme reaction at 30° C. in 0.1M Tris buffer (pH 7) containing 0.1 mM NADPH and 3.3 mM Ca-25DKG. One unit of the enzymatic activity is defined as that oxidizes 1 μmole of NADPH for one minute.

[6] = system: 25DKG-Rase derived from Strain K-106; assay: Substrate specificity by product formation, enzyme from K-106; format: biochemical, Corynebacterium sp. No. K-106 (ATCC 31,088)
Procedure: (§5) The purified enzyme solution (10 μl) obtained above (3) was mixed with 25 μmoles of a substrate (Ca-25DKG or 5KF) and 3.0 ml of 0.01M TB (pH 7) containing 15 μmoles of NADPH and the mixture was allowed to react at 30° C. for 60 minutes. After the reaction, the reaction mixture was analyzed by paper chromatography (developing solvent; phenol:formic acid:water=75:4:25, chromogenic agent; AHF solution, prepared by dissolving 0.93 g of anilin and 1.66 g of phthalic acid in 100 ml of water-saturated n-butanol and heating at 105° C. for 2 minutes) and by gas chromatography (column; SE-52, carrier gas: Helium, sample; trimethylsilylated derivative). […] In Table 1, the results of quantitative determination of the products by gas chromatography are shown.
as §2

[7] = system: 25DKG-Rase derived from Strain T-13; assay: Substrate specificity by product formation, enzyme from T-13; format: biochemical, Corynebacterium sp. No. T-13 (ATCC 31,089)
Procedure: as §5, §2

[8] = target: T2, 25DKG-Rase; assay: Inhibition, activation and stabilization of the enzyme; format: biochemical, genus Corynebacterium; conditions: for activation of the enzyme: addition of Mg++ or Mn++; for stabilization of the enzyme: glycerol of a high concentration (30-50%) or sucrose (1M)
Excerpt: It is stabilized by glycerol of a high concentration (30-50%) or sucrose (1M).

[9] = target: T2, 25DKG-Rase; assay: Action, substrate specificity and Km of the purified 25DKG-Rase (general description); format: biochemical, genus Corynebacterium; conditions: in the presence of NADP or NAD

O=C(O)C(=O)[C@@H](O)[C@H](O)C(=O)CO [25DKG, 2,5-diketo-D-gluconic acid]
reductive activity (in words) [1]: shows a high activity | product formed (paper and gas chromatography) [2]: only 2KLG is produced | Km ([3]; purified enzyme solution of K-106): 1.7 ± 1 mM | Km ([4]; purified enzyme solution of T-13): 2.6 ± 1 mM | 25DKG of the substrate reduced to 2KLG ([5]; 30° C. for 60-120 minutes): ≥ 90% | specificities for substrates (reducing action) [5]: shows specificities

O=C(O)C(=O)[C@@H](O)[C@H](O)[C@H](O)CO [Ca-2-keto-D-gluconate]
Activity of the purified enzyme solution (1 ml) [1]: 0 units

O=C(O)C(=O)[C@@H](O)[C@H](O)[C@H](O)CO [2-keto-D-gluconic acid]
reductive activity (in words) [1]: does not show any reductive activity | product formed (substrate specificity) [6]: None was produced | product formed (substrate specificity) [7]: None was produced | specificities for substrates (reducing action) [5]: does not show any reducing action

NC(=O)C1=CN([C@@H]2O[C@H](COP(=O)(O)OP(=O)(O)OC[C@H]3O[C@@H](n4cnc5c(N)ncnc54)[C@H](O)[C@@H]3O)[C@@H](O)[C@H]2O)C=CC1 [NADH, Reduced nicotinamide adenine dinucleotide]
reaction velocity with NADH as hydrogen donor relative to NADPH ([5]; NADH in place of NADPH): 1/250

[Mg+2] [Mg^++]
activation of the enzyme [8]: No remarkable increase in activation

O=CC(O)CO (stereo not shown) [glyceroaldehyde]
inhibition of the enzyme [8]: scarcely inhibited

OC[C@H]1O[C@@](CO)(O[C@H]2O[C@H](CO)[C@@H](O)[C@H](O)[C@H]2O)[C@@H](O)[C@@H]1O [sucrose]
stabilization of the enzyme [8]: stabilized

O=C(CO)[C@@H](O)[C@H](O)[C@H](O)CO [D-fructose]
Activity of the purified enzyme solution (1 ml) [1]: 0 units | reductive activity (in words) [1]: does not show any reductive activity | product formed (substrate specificity) [6]: None was produced | product formed (substrate specificity) [7]: None was produced | specificities for substrates (reducing action) [5]: does not show any reducing action

O=C(CO)[C@@H](O)[C@H](O)[C@@H](O)C(=O)O [5-keto-D-gluconic acid]
reductive activity (in words) [1]: does not show any reductive activity | product formed (substrate specificity) [6]: None was produced | product formed (substrate specificity) [7]: None was produced | specificities for substrates (reducing action) [5]: does not reduce

O=C(CO)[C@@H](O)[C@H](O)[C@@H](O)CO [L-sorbose]
Activity of the purified enzyme solution (1 ml) [1]: 0 units | reductive activity (in words) [1]: does not show any reductive activity | product formed (substrate specificity) [6]: None was produced | product formed (substrate specificity) [7]: None was produced | specificities for substrates (reducing action) [5]: does not show any reducing action | production of 25DKG or 5KF from 2KLG or L-sorbose (reverse reaction) [9]: No or not substantial production

O=C(CO)[C@@H](O)[C@H](O)C(=O)CO [5KF, 5-keto-D-fructose]
Activity of the purified enzyme solution (1 ml) [1]: 94 units | reductive activity (in words) [1]: shows a high activity | Enzymatic activity ([1]; pH 4.0, 3,3-dimethylglutaric acid buffer): 2 unit/ml | Enzymatic activity ([1]; pH 5.0, 3,3-dimethylglutaric acid buffer): 33 unit/ml | Enzymatic activity ([1]; pH 6.0, Good (PIPES) buffer): 96 unit/ml | Enzymatic activity ([1]; pH 6.5, Good (PIPES) buffer): 95 unit/ml | Enzymatic activity ([1]; pH 7.0, Good (PIPES) buffer): 92 unit/ml | Enzymatic activity ([1]; pH 7.0, Tris buffer): 93 unit/ml | Enzymatic activity ([1]; pH 7.5, Tris buffer): 68 unit/ml | Enzymatic activity ([1]; pH 8.0, Tris buffer): 48 unit/ml | Enzymatic activity ([1]; pH 8.5, Tris buffer): 27 unit/ml | Enzymatic activity ([1]; pH 9.0, Tris buffer): 13 unit/ml | Concentration of the product ([2]; 10 μl enzyme solution, 25 μmoles substrate, 15 μmoles NADPH, 30° C., gas chromatography): 795 µg/mL | product formed (paper and gas chromatography) [2]: only L-sorbose is produced | Enzymatic activity per protein ([3]; enzyme from Strain K-106, NADPH): 152 units/mg protein | Enzymatic activity ([3]; enzyme from Strain K-106, purified enzyme solution, NADPH): 38.3 units/ml | Enzymatic activity per protein ([4]; enzyme from Strain T-13, NADPH): 229 units/mg protein | Enzymatic activity ([4]; enzyme from Strain T-13, purified enzyme solution, NADPH): 39 units/ml | product formed (substrate specificity) [6]: only L-sorbose | product formed (substrate specificity) [7]: only L-sorbose | specificities for substrates (reducing action) [5]: shows specificities

O=C(O)C(=O)O [oxalate]
inhibition of the enzyme [8]: inhibited

OCC(O)CO [glycerol]
stabilization of the enzyme [8]: stabilized

[Mn+2] [Mn^++]
activation of the enzyme [8]: No remarkable increase in activation

O=C(O)C(=O)[C@@H](O)[C@H](O)[C@@H](O)CO [Na-2KLG]
Activity of the purified enzyme solution (1 ml) [1]: 0 units

O=C(CO)[C@@H](O)[C@H](O)[C@@H](O)C(=O)O [K-5-keto-gluconate]
Activity of the purified enzyme solution (1 ml) [1]: 0 units

O=C(O)C(=O)[C@@H](O)[C@H](O)[C@@H](O)CO [2KLG, 2-keto-L-gulonic acid]
reductive activity (in words) [1]: does not show any reductive activity | product formed (substrate specificity) [6]: None was produced | product formed (substrate specificity) [7]: None was produced | specificities for substrates (reducing action) [5]: does not show any reducing action | production of 25DKG or 5KF from 2KLG or L-sorbose (reverse reaction) [9]: No or not substantial production
